Test results as given in patent US20150073033A1, “BIOMARKERS FOR CANCER CHARACTERIZATION AND TREATMENT” (Board of Regents, The University of Texas System, priority 2011, published 2015).
Entries after “also recorded” stand apart in the source; their conditions may differ. Like-named read-outs stand apart in the source and are kept apart here.

Tests used:
PKM2 [1] = experiment: EGF-induced nuclear translocation of PKM2 (cell fractionation, immunoblotting, immunofluorescence); type: cell-based, human
Experimental: Immunoblotting analyses (b, b) were performed with the indicated antibodies. Nuclear PCNA and cytoplasmic tubulin were used as controls. a: The indicated cells were immunostained with an anti-PKM2 antibody.
Immunoblotting and immunoprecipitation analyses were performed with the indicated antibodies. a: Nuclear fractions were prepared from U87/EGFR cells pretreated with LY290042 (30 μM), SU6656 (4 μM), SP600125 (25 μM), and U0126 (20 μM) for 30 min before EGF (100 ng/mL) for 6 h. Nuclear PCNA and cytoplasmic tubulin were used as controls. b: U87/EGFR cells were pretreated with or without U0126 (20 μM) for 30 min before EGF (100 ng/mL) for 6 h. Immunofluorescence analyses were performed with the indicated antibodies. Nuclei were stained with Hoechst 33342 (blue). c: U251 cells were stably transfected with a vector with or without expressing FLAG-ERK2 K52R (left panel) or transiently transfected with vectors expressing MEK1 Q56P and indicated FLAG-tagged ERK2 proteins (right panel). The cells were treated with or without EGF (100 ng/mL) for 6 h, and the total cell lysates and nuclear fractions were prepared. d: FLAG-PKM2 or FLAG-PKM1 was immunoprecipitated with an anti-FLAG antibody from U87/EGFR cells treated with or without EGF (100 ng/mL) for 30 min. e: Bacterially-purified GST-ERK2 immobilized on glutathione agarose beads was mixed with or without purified His-PKM2. GST pull-down analyses were performed. Ten percent of total His-PKM2 was used as an input. f: U87/EGFR cells transfected with vectors expressing the indicated FLAG-tagged ERK proteins were treated with or without EGF (100 ng/mL) for 30 min. g: U87/EGFR cells expressing the indicated FLAG-PKM2 proteins were treated with or without EGF (100 ng/mL) for 30 min.
(§1) Immunofluorescence analyses of endogenous PKM2 or transiently expressed FLAG-PKM1 were performed with the indicated antibodies. […] Immunoblotting analyses were performed with the indicated antibodies. Nuclear PCNA was used as controls for immunoblotting analyses. c: An equal volume of cytosolic and nuclear fractions were prepared from U87/EGFR cells treated with or without EGF (100 ng/mL) for 6 h. Ten microliters of protein from cytosolic and nuclear fractions were used for immunoblotting analyses with the indicated antibodies. d: Nuclear fractions were prepared from U251 cells pretreated with LY290042 (30 μM), SU6656 (4 μM), SP600125 (25 μM), and U0126 (20 μM) for 30 min before EGF (100 ng/mL) for 6 h. Immunoblotting analyses were performed with the indicated antibodies. Nuclear PCNA and cytoplasmic tubulin were used as controls. e: U87/EGFR cells were pretreated with LY290042 (30 μM), SU6656 (4 μM), SP600125 (25 μM), and U0126 (20 μM) for 30 min before EGF (100 ng/mL) for 6 h. Immunoblotting analyses were performed with the indicated antibodies.
Cytosolic and nuclear fractions were prepared. Immunoblotting analyses were performed with the indicated antibodies. b: U87/EGFR cells with depleted endogenous PKM2 and reconstituted expression of RNAi-resistant WT rPKM2 or rPKM2 S37A were treated with or without EGF (100 ng/mL) for 6 h. Total cell lysates (left panel) and nuclear fractions (right panel) were prepared.

AKT = experiment: EGF-induced AKT phosphorylation, immunoblotting; type: cell-based, human; conditions: U87/EGFR cells; LY290042 30 μM or AKT inhibitor 10 μM 30 min before EGF
Experimental: Immunofluorescence analyses of endogenous PKM2 or transiently expressed FLAG-PKM1 were performed with the indicated antibodies. […] Immunoblotting analyses were performed with the indicated antibodies. […] Immunoblotting analyses were performed with the indicated antibodies. […] Immunoblotting analyses were performed with the indicated antibodies.
(§2) FIG. 63: PKC, NF-κB, PI3-K, and CK2 are inhibited by their inhibitors. A, B: U87/EGFR cells were treated with Bis-I (2 μM) (A) or Go6976 (2 μM) (B) for 30 min before 12-O-tetradecanoylphorbol-13-acetate (TPA) ([…]) for 8 h. Immunoblotting analyses were performed with the indicated antibodies. C: U87/EGFR cells transiently expressing a luciferase reporter vector containing the IκBα promoter were pretreated with or without NF-κB activation inhibitor II (7 μM) for 30 min before TNFα (10 ng/mL) for 8 h. The relative levels of luciferase activity were normalized to the levels of untreated cells and to the levels of luciferase activity of the Renilla control plasmid. Data represent the mean±standard deviation of three independent experiments. […] Immunoblotting analyses were performed with the indicated antibodies.

PKM2 expression = experiment: EGF-induced PKM2 upregulation, immunoblotting; type: cell-based, human; conditions: U87/EGFR cells; pretreatment before EGF 100 ng/mL 12 h; AG1478 1 μM, cycloheximide 200 μg/mL, Bis-I 2 μM, Go6976 2 μM, NF-κB activation inhibitor II 7 μM, AKT inhibitor 10 μM, TBB 50 μM, U73122 2 μM
Experimental: FIG. 56: EGFR activation results in upregulation of PKM2 expression. A-D: Immunoblotting analyses were performed with or without the indicated antibodies. A: The indicated cell lines were treated with EGF (100 ng/mL) for 12 h. B: U87 cells were stably transfected with plasmids expressing EGFR or EGFRvIII. […] D: U87/EGFR cells were pretreated with or without cycloheximide (CHX) (200 μg/mL) for 30 min before EGF (100 ng/mL) treatment for 12 h. […] The relative mRNA levels of PKM2 and PKM1 were normalized to the levels of untreated cells and β-actin mRNA. Data represent the mean±SD of three independent experiments.
FIG. 57: EGF increases PKM2 expression in a PKC- and NF-κB-dependent manner. A-D, H: Immunoblotting analyses were performed with the indicated antibodies. […] ChIP assay was performed with an anti-RelA antibody for immunoprecipitation, followed by PCR with PKM promoter-specific primers. F: An oligonucleotide containing the putative WT or mutated NF-κB binding sequence was labeled using [γ-^32P] ATP and T4 polynucleotide kinase. […] Samples were subjected to 5% polyacrylamide gel electrophoresis, and the dried gel was exposed to x-ray film. […] The relative levels of luciferase activity were normalized to the levels of untreated cells and to the levels of luciferase activity of the Renilla control plasmid. Data represent the mean±standard deviation of three independent experiments.
FIG. 58: PKCε downstream from PLCγ1, rather than TAK1, activates IKKβ and subsequently increases PKM2 expression. […] B: U87/EGFR cells were treated with TNFα (10 ng/mL) for the indicated time. C: U87/EGFR cells were treated with or without EGF (100 ng/mL) or TNFα (10 ng/mL) for 4 h. […] HIF1α was immunodepleted from the cell lysates by incubation with an anti-HIF1α antibody, which was followed by a ChIP assay with an anti-FLAG antibody for immunoprecipitation of FLAG-RelA and PCR analysis with PKM promoter-specific primers. […] F: 293T cells were transiently transfected with constitutively active (+) or kinase-dead (−) PKC mutants. […] H, I: 293T cells were transiently transfected with the indicated plasmids.

PKCε = target: T1, PKCε (Homo sapiens, UniProt Q02156); experiment: TPA-induced, PKC kinase activity-dependent degradation of PKCε; type: cell-based; conditions: U87/EGFR cells; Bis-I 2 μM 30 min before TPA 8 h
T1 construct: endogenous in cells; host or cells: U87/EGFR
T1 sequence (Q02156 1-737): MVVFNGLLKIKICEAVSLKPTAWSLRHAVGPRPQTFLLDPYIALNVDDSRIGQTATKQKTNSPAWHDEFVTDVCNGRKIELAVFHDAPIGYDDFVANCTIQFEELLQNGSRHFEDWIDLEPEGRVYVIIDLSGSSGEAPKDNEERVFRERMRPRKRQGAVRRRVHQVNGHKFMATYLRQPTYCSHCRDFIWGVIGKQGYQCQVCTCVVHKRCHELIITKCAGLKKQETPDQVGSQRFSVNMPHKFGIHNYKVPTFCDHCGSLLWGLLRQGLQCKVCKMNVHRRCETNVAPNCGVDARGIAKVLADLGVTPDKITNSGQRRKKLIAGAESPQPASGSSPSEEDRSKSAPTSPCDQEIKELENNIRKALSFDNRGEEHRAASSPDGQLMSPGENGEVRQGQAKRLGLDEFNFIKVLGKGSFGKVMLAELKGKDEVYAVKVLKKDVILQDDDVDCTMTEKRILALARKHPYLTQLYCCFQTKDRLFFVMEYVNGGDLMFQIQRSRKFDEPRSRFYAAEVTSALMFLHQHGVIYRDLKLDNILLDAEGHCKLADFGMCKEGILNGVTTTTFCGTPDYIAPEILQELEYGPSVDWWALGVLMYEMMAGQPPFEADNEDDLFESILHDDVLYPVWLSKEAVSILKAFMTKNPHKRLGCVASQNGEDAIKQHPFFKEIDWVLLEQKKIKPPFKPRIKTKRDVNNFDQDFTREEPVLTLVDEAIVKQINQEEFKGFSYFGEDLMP
Experimental: as §2

PKCα = target: T2, PKCα (Homo sapiens, UniProt P17252); experiment: TPA-induced, PKC kinase activity-dependent degradation of PKCα; type: cell-based; conditions: U87/EGFR cells; Go6976 2 μM 30 min before TPA 8 h
T2 construct: endogenous in cells; host or cells: U87/EGFR
Experimental: as §2

ERK1/2 = experiment: EGF-induced ERK1/2 phosphorylation, immunoblotting; type: cell-based, human; conditions: U87/EGFR cells; AG1478 1 μM or U0126 20 μM 30 min before EGF 6 h
Experimental: as §1
(§3) Extraction of proteins with a modified buffer from cultured cells was followed by immunoprecipitation and immunoblotting with corresponding antibodies, as described previously (Lu et al., 1998).

PKM2 S37 = conditions: U87/EGFR cells; U0126 20 μM 30 min before EGF 100 ng/mL 30 min
Experimental: FIG. 43: ERK2 phosphorylates PKM2 S37. […] Immunofluorescence analyses were performed with an anti-FLAG antibody (f). Nuclei were stained with Hoechst 33342 (blue).
as §3

PIN1-PKM2 binding = conditions: U0126 20 μM 30 min before EGF 30 min
Experimental: Immunoprecipitation and immunoblotting analyses were performed with the indicated antibodies. a: His-PIN1 immobilized on nickel agarose beads was incubated with lysate of U87/EGFR cells treated with or without U0126 (20 μM) for 30 min before EGF (100 ng/mL) stimulation for 30 min. b: U87/EGFR cells transiently expressing WT FLAG-PKM2 or FLAG-PKM2 S37A were treated with or without EGF (100 ng/mL) for 30 min. […] Data represent the mean±SD of three independent experiments. g: PIN1^−/− cells were reconstituted to express the indicated PIN1 proteins (left panel). The total cell lysates and nuclear fractions were prepared from the indicated cells treated with or without EGF (100 ng/mL) for 6 h (right panel). h: Total cell lysates and nuclear fractions of PIN1^−/− cells or PIN^−/− cells expressing FLAG-PKM2 S37D were prepared.
as §3

PKM2 [2] = conditions: U87 cells; U0126 20 μM 30 min before PDGF-AA 50 ng/mL 6 h
Experimental: (§4) Nuclear PCNA. Immunoblotting analyses were performed with the indicated antibodies. b: U87 cells were cultured in no-serum DMEM and treated with or without U0126 (20 μM) for 30 min before PDGF-AA (50 ng/mL) for 20 h. The media were collected for analysis of glucose consumption (left panel) or lactate production (right panel). Data represent the mean±SD of three independent experiments.

U87 cells = conditions: no-serum DMEM, U0126 20 μM 30 min before PDGF-AA 50 ng/mL 20 h
Experimental: as §4
Cells were seeded in culture dishes, and the medium was changed after 6 h with no-serum DMEM. Cells were incubated for 12-16 h, and the culture medium was then collected for measurement of glucose and lactate concentrations. Glucose levels were determined using a glucose (GO) assay kit (Sigma). Glucose consumption was the difference in glucose concentration compared with DMEM. Lactate levels were determined using a lactate assay kit (Eton Bioscience, San Diego, Calif.).

O=c1cc(N2CCOCC2)oc2c(-c3ccccc3)cccc12 [LY290042]
EGF-induced nuclear accumulation/translocation of PKM2 (PKM2 [1]; U87/EGFR (and U251) cells, 30 min pretreatment before EGF 100 ng/mL, LY290042 30 μM, SU6656 4 μM, SP600125 25 μM, U0126 20 μM, AG1478 1 μM, cycloheximide 100 μg/mL): only inhibition of MEK/ERK abrogated | EGF-induced phosphorylation of AKT (AKT): blocked

CN(C)CCCn1cc(C2=C(c3c[nH]c4ccccc34)C(=O)NC2=O)c2ccccc21 [Bis-I]
EGF-induced PKM2 upregulation/expression (PKM2 expression): largely abrogated; also recorded: blocked | TPA-induced and PKC kinase activity-dependent degradation of PKCε (PKCε): successfully blocked

Cn1c2ccccc2c2c3c(c4c5ccccc5n(CCC#N)c4c21)CNC3=O [Go6976]
TPA-induced and PKC kinase activity-dependent degradation of PKCα (PKCα): successfully blocked

N#CC(=C(/N)Sc1ccccc1N)/C(C#N)=C(\N)Sc1ccccc1N [U0126]
EGF-induced nuclear accumulation/translocation of PKM2 (PKM2 [1]): abrogated; also recorded: blocked | EGF-induced phosphorylation of ERK1/2 (ERK1/2): blocked | EGF-induced PKM2 S37 phosphorylation (PKM2 S37): blocked | EGF-increased binding of endogenous PIN1 to endogenous PKM2 (co-immunoprecipitation) (PIN1-PKM2 binding; U87/EGFR cells): blocked | EGF-induced binding of endogenous PKM2 to His-PIN1 (PIN1-PKM2 binding; lysate of U87/EGFR cells): abrogated | PDGF-induced nuclear translocation of PKM2 (PKM2 [2]): blocked | PDGF-induced glucose uptake (U87 cells): blocked | PDGF-induced lactate production (U87 cells): blocked
